We go through two compounds from patent US20200017495A1, “NOVEL HETEROCYCLIC COMPOUNDS AND THEIR USE IN PREVENTING OR TREATING BACTERIAL INFECTIONS” (priority 2017, published 2020).

Molecules are shown by their SMILES.

The target of one data set is KPC-2 (Klebsiella pneumoniae, UniProt Q9F663). The data set is described as follows: β-lactamase inhibitory activity, IC50 (nitrocefin hydrolysis). In kind it is biochemical.
For a further data set, the target named is OXA-58 (Acinetobacter baumannii, UniProt Q2TR58). The data set is described as above. Format: biochemical.
OXA-58, sequence (Q2TR58 19-280): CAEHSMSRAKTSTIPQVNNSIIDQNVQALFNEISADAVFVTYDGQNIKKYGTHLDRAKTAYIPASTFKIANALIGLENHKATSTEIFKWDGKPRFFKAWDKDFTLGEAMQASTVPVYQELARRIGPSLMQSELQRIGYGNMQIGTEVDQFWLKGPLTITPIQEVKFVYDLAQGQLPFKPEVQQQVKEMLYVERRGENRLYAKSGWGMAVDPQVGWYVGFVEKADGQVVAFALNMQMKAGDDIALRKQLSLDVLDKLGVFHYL
The target in another data set is OXA-48 (Klebsiella pneumoniae, UniProt Q6XEC0). Described as above. Format: biochemical.
OXA-48, sequence (Q6XEC0 23-265 limits assumed): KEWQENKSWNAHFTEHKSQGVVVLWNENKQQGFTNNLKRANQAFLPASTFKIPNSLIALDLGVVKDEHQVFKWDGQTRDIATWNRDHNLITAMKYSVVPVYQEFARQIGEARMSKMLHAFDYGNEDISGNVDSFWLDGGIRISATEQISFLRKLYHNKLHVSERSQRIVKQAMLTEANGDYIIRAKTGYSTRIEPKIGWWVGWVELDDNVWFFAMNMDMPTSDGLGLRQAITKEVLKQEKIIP
In a further data set the target is CTX-M-15 (Escherichia coli, UniProt Q9EXV5). The data set is described as above. In kind it is biochemical.
CTX-M-15, sequence (Q9EXV5 entry or part of it): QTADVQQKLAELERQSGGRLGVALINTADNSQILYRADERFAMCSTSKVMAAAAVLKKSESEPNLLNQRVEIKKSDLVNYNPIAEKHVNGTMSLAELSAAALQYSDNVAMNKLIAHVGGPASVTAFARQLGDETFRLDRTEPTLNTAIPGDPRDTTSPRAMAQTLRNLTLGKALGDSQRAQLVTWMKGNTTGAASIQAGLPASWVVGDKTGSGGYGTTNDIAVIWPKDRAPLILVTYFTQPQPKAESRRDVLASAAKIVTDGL
For a further data set, the target named is SAU PC1 (Staphylococcus aureus, UniProt P00807). Described as above. Format: biochemical, S. aureus.
SAU PC1, sequence (P00807 25-281): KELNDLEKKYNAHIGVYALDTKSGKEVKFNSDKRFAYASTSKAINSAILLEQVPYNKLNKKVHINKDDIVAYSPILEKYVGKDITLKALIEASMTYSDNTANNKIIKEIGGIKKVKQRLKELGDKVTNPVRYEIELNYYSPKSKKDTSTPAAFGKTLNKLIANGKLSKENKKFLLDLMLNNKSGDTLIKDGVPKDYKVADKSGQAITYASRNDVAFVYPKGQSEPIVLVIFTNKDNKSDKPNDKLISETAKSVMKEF
A further data set addresses SHV-1 (Klebsiella pneumoniae, UniProt P0AD64). Described as above. In kind it is biochemical.
For the next data set, the target named is OXA-11 (Pseudomonas aeruginosa, UniProt Q06778). The description is as above. Format: biochemical.
OXA-11, sequence (Q06778 21-266): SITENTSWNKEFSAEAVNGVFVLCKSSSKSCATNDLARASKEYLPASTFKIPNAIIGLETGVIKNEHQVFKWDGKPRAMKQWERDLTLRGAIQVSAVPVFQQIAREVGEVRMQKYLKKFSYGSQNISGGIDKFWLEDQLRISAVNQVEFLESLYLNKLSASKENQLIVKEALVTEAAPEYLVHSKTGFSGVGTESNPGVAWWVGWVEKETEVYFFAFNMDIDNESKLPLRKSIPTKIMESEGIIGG
Another data set deals with OXA-15 (Pseudomonas aeruginosa, UniProt Q51574). The data set is described as above. In kind it is biochemical.
OXA-15, sequence (Q51574 22-275): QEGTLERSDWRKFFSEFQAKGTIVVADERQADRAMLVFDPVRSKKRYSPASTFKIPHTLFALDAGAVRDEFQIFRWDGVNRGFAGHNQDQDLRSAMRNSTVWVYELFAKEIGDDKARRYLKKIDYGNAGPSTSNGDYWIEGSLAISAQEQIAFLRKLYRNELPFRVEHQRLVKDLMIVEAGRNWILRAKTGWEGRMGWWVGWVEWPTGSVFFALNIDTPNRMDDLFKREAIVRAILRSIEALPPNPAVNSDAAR
The target of the next data set is P99 ampC (Enterobacter cloacae, UniProt P05364). Described as above. In kind it is biochemical.
P99 ampC, sequence (P05364 21-381): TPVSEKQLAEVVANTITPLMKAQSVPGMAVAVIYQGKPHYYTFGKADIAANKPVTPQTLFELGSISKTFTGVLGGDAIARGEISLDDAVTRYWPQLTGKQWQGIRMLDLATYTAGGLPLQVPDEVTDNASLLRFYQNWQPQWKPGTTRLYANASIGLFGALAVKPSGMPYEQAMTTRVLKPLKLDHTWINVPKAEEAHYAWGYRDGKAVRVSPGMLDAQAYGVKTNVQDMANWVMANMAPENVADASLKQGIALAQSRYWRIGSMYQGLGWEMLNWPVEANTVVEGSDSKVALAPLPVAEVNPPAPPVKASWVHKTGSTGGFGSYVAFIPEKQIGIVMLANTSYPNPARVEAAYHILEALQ
Data set [1] in a line: Rat intraduodenal bioavailability determination. Format: in vivo, Male Sprague-Dawley (SD) rats. Particulars: 10 mg/kg, AF2 titrated in plasma. The method, then:
Method 3: Rat Intraduodenal Bioavailability Determination (Table 7) Intravenous (jugular) or intraduodenal catheterized Male Sprague-Dawley (SD) rats (250-270 g) were obtained from Janvier Labs (Le Genest-Saint-Isle, France). All rats were housed in a −temperature (20±2° C.) and −humidity (55%±10%) controlled room with 12h light/dark cycle, and were acclimatized for at least 4 days before experimentation. Water and food were available ad libitum throughout the study. All rats were handled in accordance with the institutional and national guidelines for the care and use of laboratory animals. Rats were allocated to two groups based on the administration route: intravenous or intraduodenal administration (n=3/group). In the intravenous administration study, drugs (10 mg/kg in phosphate buffer 10 mM, pH7.4) were administered under isoflurane anesthesia via the catheter placed in the jugular vein. […] The pharmacokinetic parameters were calculated using XLfit (IDBS) and Excel (Microsoft) software, using standard non-compartmental methods. The intraduodenal bioavailability was calculated by dividing the AUC obtained from the intraduodenal administration by the AUC obtained from the intravenous administration.

SHV-1, sequence (P0AD64 22-286): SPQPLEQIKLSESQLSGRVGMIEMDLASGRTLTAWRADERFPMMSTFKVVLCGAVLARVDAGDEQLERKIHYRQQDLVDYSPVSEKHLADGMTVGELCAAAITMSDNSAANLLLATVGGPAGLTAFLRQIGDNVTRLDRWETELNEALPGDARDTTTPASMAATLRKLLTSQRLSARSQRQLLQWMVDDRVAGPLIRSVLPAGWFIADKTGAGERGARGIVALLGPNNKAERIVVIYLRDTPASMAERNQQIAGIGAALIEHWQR
KPC-2, sequence (Q9F663 25-293 limits assumed): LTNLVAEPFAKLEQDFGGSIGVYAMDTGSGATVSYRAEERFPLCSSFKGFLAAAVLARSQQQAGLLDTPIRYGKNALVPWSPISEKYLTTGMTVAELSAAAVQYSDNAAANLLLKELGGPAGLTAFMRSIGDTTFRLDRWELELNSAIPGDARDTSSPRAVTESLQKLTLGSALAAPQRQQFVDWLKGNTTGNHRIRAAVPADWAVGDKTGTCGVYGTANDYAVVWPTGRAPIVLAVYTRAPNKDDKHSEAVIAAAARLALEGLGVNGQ
Experimental for CTX-M-15: (§1) Method 1: β-Lactamase Inhibitory Activity, Determination of IC50 (Table 1)
(§2) Enzymes were cloned in E. coli expression vector, expressed and purified in house using classical procedures. […] After 30 min of pre-incubation at room temperature, 15 μL of NCF (100 μM final) were finally added in each well. […] Enzyme activity was obtained by subtracting the background from the final signal, and was converted to enzyme inhibition using non inhibited wells. IC50 curves were fitted to a classical Langmuir equilibrium model with Hill slope using XLFIT (IDBS).
Experimental for KPC-2: as §1, §2
Experimental for OXA-11: as §2
Experimental for OXA-15: as §2
Experimental for OXA-48: as §2
Experimental for OXA-58: as §2
Experimental for P99 ampC: as §1, §2
Experimental for SAU PC1: as §1, §2
Experimental for SHV-1: as §2

As to `O=C1N2CC(n3cccn3)=CC(C2)N1OC(F)(F)C(=O)[O-].[Li+]` (centres unmarked) [AF3], the half-inhibitory concentration (IC50) against KPC-2 worked out at 77 nM; at OXA-58, 1000 nM; on OXA-48, 5.1 nM; against CTX-M-15, 0.66 nM; against SAU PC1, 120 nM; against SHV-1, 6 nM. The results for the IC50 against OXA-11, on OXA-15 and at P99 ampC were 40 nM, 120 nM and 270 nM, respectively.

`O=C1N2CC(c3ncco3)=CC(C2)N1OC(F)(F)C(=O)[O-].[Li+]` (centres unmarked) [AF2]: the IC50 on KPC-2 came out at 69 nM; against OXA-58 it was 580 nM; against OXA-48, 2.4 nM; on CTX-M-15, 1.5 nM; on SAU PC1 it was 220 nM; on SHV-1 it was 12 nM. Further, the results for the IC50 at OXA-11, on OXA-15 and on P99 ampC were 84 nM, 140 nM and 730 nM, respectively. Besides, the “AUC 0-∞” value in data set [1] (intravenous) is 10789 ng·h/mL. The compound also came in with an AUC(0-inf) in data set [1] (male, Sprague-Dawley, plasma, iv) of 11000 ng·h/mL.
